In one data set the test system is human keratinocytes. Kind of data set: Cell protecting effect against UVB on human keratinocytes cultivated in vitro (number of keratinocytes, released LDH). It counts as cell-based. The following applies: UVB 50 mJ/cm^2, 0.03%.
For a further data set, the system named is human fibroblasts. Description: Cell protecting effect against UVA on human fibroblasts cultivated in vitro (MDA level, protein content). Type of data set: cell-based. The following applies: UVA 365 nm, + vitamin E, concentration not given. The protocol: The lipoperoxides are degraded to malonaldialdehyde which will crosslink many biological molecules, such as proteins and nuclein bases (enzyme inhibition or mutagenesis).
Method: To carry out these tests, a defined culture medium (DMEM) containing the fibroblasts was inoculated with foetal calf serum and added to the plant extract (in the defined medium containing 10% foetal serum) 72 hours after inoculation. Incubation was carried out at 37° C./5% CO2.
After incubation for 48 hours at 37° C./5% CO2, the culture medium was replaced by saline solution (physioloigcal NaCl solution) and the fibroblasts were exposed to a dose of UVA (365 nm, 20 J/cm^2; tubes: MAZDA FLUOR TFWN40).
After the exposure to UVA, the MDA level (malonaldialdehyde level) in the supernatant sodium chloride solution was quantitatively determined by reaction with thiobarbituric acid. The protein content was determined by Bradford's method using a Coomassie Brilliant Blue color (Bradford, Analytical Biochem., 72; 248-254; 1976).

Method for human keratinocytes: Method: the effect of UVB radiation was investigated in vitro on keratinocytes by determining the release of the cytoplasm enzyme LDH (lactate dehydrogenase). This enzyme serves as a marker for cell damage.
To carry out the test, a defined medium (DMEM) containing fetal calf serum was inoculated with the keratinocytes and added to the plant extract (diluted with saline solution) 72 hours after inoculation.
The keratinocytes were then exposed to a UVB dose (50 mJ/cm^2-tubes: DUKE FL40E).
After incubation for another day ay 37° C./5% CO2. the LDH content in the supernatant phase was determined. The LDH (lactate dehydrogenase) content was spectrophotometrically determined by determining the NADH content during the LDH-catalyzed conversion of pyruvate to lactate by Bonnekoh's method (Bonnekoh B. et al.; Dermatol. Research; 282; 325-329; 1990).
The number of adhering keratinocytes was determined by a DNA assay based on the fluorescence measurement of fluorochromium that binds to cellular DNA using Desaulniers' method (Desaulniers D. et al.; Toxicol. in vitro; 12; 409-422; 1998) and a particle counter. Another test was carried out for comparison using a standard anti-inflammatory, acetyl salicyclic acid.

With `CC(=O)Oc1ccccc1C(=O)O` [acetylsalicylic acid], the “Content of LDH released” value in the data set on human keratinocytes (UVB alone = 100) is given as 3(2). In the data set on human keratinocytes (control without UV = 100), the Number of keratinocytes is given as 76(5).

Turning to vitamin E, the MDA level in the data set on human fibroblasts (20 J/cm^2) was 31(4) % versus control. Moreover, the Protein content in the data set on human fibroblasts is listed as 102(11) % versus control.

The record behind these values is patent publication US20070134193A1, “Cosmetic and/or pharmaceutical preparations” (priority 2001, published 2007).
